The numbers were not newly measured in patent publication US20040132055A1, “Recombinant chalcomycin polyketide synthase and modifying genes” (priority 2002, published 2004), which cites them from elsewhere.

The conditions of the data set: spectrum, in words.

For `COC1CC(C)OC(OC2C(C)/C=C/C(=O)OC(C)C(COC3OC(C)C(O)C(OC)C3OC)C3OC3/C=C/C(=O)C(C)(O)CC2C)C1O` (stereo not shown) [Chalcomycin, chalcomycin], the antimicrobial activity result is reported as “broad spectrum of antimicrobial activity”.
